In the NIST ThermoML archive (doi:10.1021/je700287u):
Numbers after ± are expanded uncertainties.

Conditions: Liquid

CN(CCO)CCO [N-methyldiethanolamine]
mass density (313.09 K, 1007 kPa): 1025.3 ± 0.6 kg/m3 | mass density (313.09 K, 1989 kPa): 1025.8 ± 0.6 kg/m3 | mass density (313.09 K, 3027 kPa): 1026.4 ± 0.6 kg/m3 | mass density (313.09 K, 4003 kPa): 1026.9 ± 0.6 kg/m3 | mass density (313.09 K, 5004 kPa): 1027.3 ± 0.6 kg/m3 | mass density (313.09 K, 6004 kPa): 1027.8 ± 0.6 kg/m3 | mass density (313.09 K, 6996 kPa): 1028.3 ± 0.6 kg/m3 | mass density (313.09 K, 8006 kPa): 1028.8 ± 0.6 kg/m3 | mass density (313.09 K, 9066 kPa): 1029.4 ± 0.6 kg/m3 | mass density (313.09 K, 10021 kPa): 1029.8 ± 0.6 kg/m3 | mass density (313.09 K, 11008 kPa): 1030.3 ± 0.6 kg/m3 | mass density (313.09 K, 11995 kPa): 1030.8 ± 0.6 kg/m3 | mass density (313.09 K, 13024 kPa): 1031.3 ± 0.7 kg/m3 | mass density (313.09 K, 13984 kPa): 1031.7 ± 0.7 kg/m3 | mass density (313.09 K, 14994 kPa): 1032.2 ± 0.7 kg/m3 | mass density (313.09 K, 15992 kPa): 1032.7 ± 0.7 kg/m3 | mass density (313.09 K, 16977 kPa): 1033.1 ± 0.7 kg/m3 | mass density (313.09 K, 17994 kPa): 1033.6 ± 0.7 kg/m3 | mass density (313.09 K, 19000 kPa): 1034 ± 0.7 kg/m3 | mass density (313.09 K, 19985 kPa): 1034.5 ± 0.7 kg/m3 | mass density (323.01 K, 1003 kPa): 1017.6 ± 0.6 kg/m3 | mass density (323.01 K, 2020 kPa): 1018.2 ± 0.6 kg/m3 | mass density (323.01 K, 3006 kPa): 1018.7 ± 0.6 kg/m3 | mass density (323.01 K, 4031 kPa): 1019.2 ± 0.6 kg/m3 | mass density (323.01 K, 5002 kPa): 1019.7 ± 0.6 kg/m3 | mass density (323.01 K, 6020 kPa): 1020.2 ± 0.6 kg/m3 | mass density (323.01 K, 7003 kPa): 1020.7 ± 0.6 kg/m3 | mass density (323.01 K, 8000 kPa): 1021.2 ± 0.6 kg/m3 | mass density (323.01 K, 9006 kPa): 1021.7 ± 0.6 kg/m3 | mass density (323.01 K, 9991 kPa): 1022.2 ± 0.6 kg/m3 | mass density (323.01 K, 11005 kPa): 1022.7 ± 0.6 kg/m3 | mass density (323.01 K, 12000 kPa): 1023.2 ± 0.6 kg/m3 | mass density (323.01 K, 13010 kPa): 1023.7 ± 0.6 kg/m3 | mass density (323.01 K, 14000 kPa): 1024.2 ± 0.6 kg/m3 | mass density (323.01 K, 14987 kPa): 1024.7 ± 0.6 kg/m3 | mass density (323.01 K, 15987 kPa): 1025.2 ± 0.6 kg/m3 | mass density (323.01 K, 17012 kPa): 1025.6 ± 0.6 kg/m3 | mass density (323.01 K, 17991 kPa): 1026.1 ± 0.7 kg/m3 | mass density (323.01 K, 18995 kPa): 1026.6 ± 0.7 kg/m3 | mass density (323.01 K, 20012 kPa): 1027.1 ± 0.7 kg/m3 | mass density (332.95 K, 1045 kPa): 1009.9 ± 0.6 kg/m3 | mass density (332.95 K, 2032 kPa): 1010.5 ± 0.6 kg/m3 | mass density (332.95 K, 2995 kPa): 1011 ± 0.6 kg/m3 | mass density (332.95 K, 3991 kPa): 1011.6 ± 0.6 kg/m3 | mass density (332.95 K, 4983 kPa): 1012.1 ± 0.6 kg/m3 | mass density (332.95 K, 6016 kPa): 1012.6 ± 0.6 kg/m3 | mass density (332.95 K, 6998 kPa): 1013.2 ± 0.6 kg/m3 | mass density (332.95 K, 8009 kPa): 1013.7 ± 0.6 kg/m3 | mass density (332.95 K, 8993 kPa): 1014.2 ± 0.6 kg/m3 | mass density (332.95 K, 9991 kPa): 1014.7 ± 0.6 kg/m3 | mass density (332.95 K, 10985 kPa): 1015.3 ± 0.6 kg/m3 | mass density (332.95 K, 12014 kPa): 1015.8 ± 0.6 kg/m3 | mass density (332.95 K, 13079 kPa): 1016.3 ± 0.6 kg/m3 | mass density (332.95 K, 13992 kPa): 1016.8 ± 0.6 kg/m3 | mass density (332.95 K, 14999 kPa): 1017.3 ± 0.6 kg/m3 | mass density (332.95 K, 15997 kPa): 1017.8 ± 0.6 kg/m3 | mass density (332.95 K, 16989 kPa): 1018.3 ± 0.6 kg/m3 | mass density (332.95 K, 17997 kPa): 1018.8 ± 0.6 kg/m3 | mass density (332.95 K, 19011 kPa): 1019.3 ± 0.6 kg/m3 | mass density (332.95 K, 19963 kPa): 1019.7 ± 0.6 kg/m3 | mass density (342.78 K, 1004 kPa): 1002 ± 0.5 kg/m3 | mass density (342.78 K, 1998 kPa): 1002.6 ± 0.5 kg/m3 | mass density (342.78 K, 3050 kPa): 1003.2 ± 0.5 kg/m3 | mass density (342.78 K, 4015 kPa): 1003.7 ± 0.5 kg/m3 | mass density (342.78 K, 4998 kPa): 1004.3 ± 0.5 kg/m3 | mass density (342.78 K, 6020 kPa): 1004.9 ± 0.5 kg/m3 | mass density (342.78 K, 7011 kPa): 1005.4 ± 0.6 kg/m3 | mass density (342.78 K, 8034 kPa): 1006 ± 0.6 kg/m3 | mass density (342.78 K, 9001 kPa): 1006.5 ± 0.6 kg/m3 | mass density (342.78 K, 10000 kPa): 1007.1 ± 0.6 kg/m3 | mass density (342.78 K, 11000 kPa): 1007.6 ± 0.6 kg/m3 | mass density (342.78 K, 12012 kPa): 1008.2 ± 0.6 kg/m3 | mass density (342.78 K, 12947 kPa): 1008.7 ± 0.6 kg/m3 | mass density (342.78 K, 13991 kPa): 1009.2 ± 0.6 kg/m3 | mass density (342.78 K, 15001 kPa): 1009.8 ± 0.6 kg/m3 | mass density (342.78 K, 15987 kPa): 1010.3 ± 0.6 kg/m3 | mass density (342.78 K, 16998 kPa): 1010.8 ± 0.6 kg/m3 | mass density (342.78 K, 18005 kPa): 1011.3 ± 0.6 kg/m3 | mass density (342.78 K, 18981 kPa): 1011.9 ± 0.6 kg/m3 | mass density (342.78 K, 19980 kPa): 1012.4 ± 0.6 kg/m3 | mass density (352.68 K, 1013 kPa): 994.4 ± 0.5 kg/m3 | mass density (352.68 K, 2013 kPa): 995 ± 0.5 kg/m3 | mass density (352.68 K, 3004 kPa): 995.6 ± 0.5 kg/m3 | mass density (352.68 K, 3999 kPa): 996.1 ± 0.5 kg/m3 | mass density (352.68 K, 5003 kPa): 996.8 ± 0.5 kg/m3 | mass density (352.68 K, 6019 kPa): 997.3 ± 0.5 kg/m3 | mass density (352.68 K, 7005 kPa): 997.8 ± 0.5 kg/m3 | mass density (352.68 K, 8001 kPa): 998.4 ± 0.5 kg/m3 | mass density (352.68 K, 8984 kPa): 999 ± 0.5 kg/m3 | mass density (352.68 K, 9981 kPa): 999.5 ± 0.5 kg/m3 | mass density (352.68 K, 11029 kPa): 1000.2 ± 0.5 kg/m3 | mass density (352.68 K, 11980 kPa): 1000.7 ± 0.5 kg/m3 | mass density (352.68 K, 13051 kPa): 1001.3 ± 0.5 kg/m3 | mass density (352.68 K, 14000 kPa): 1001.8 ± 0.5 kg/m3 | mass density (352.68 K, 14988 kPa): 1002.4 ± 0.5 kg/m3 | mass density (352.68 K, 16018 kPa): 1002.9 ± 0.5 kg/m3 | mass density (352.68 K, 16978 kPa): 1003.4 ± 0.6 kg/m3 | mass density (352.68 K, 17977 kPa): 1004 ± 0.6 kg/m3 | mass density (352.68 K, 19003 kPa): 1004.5 ± 0.6 kg/m3 | mass density (352.68 K, 19990 kPa): 1005.1 ± 0.6 kg/m3 | mass density (362.52 K, 1005 kPa): 986.7 ± 0.6 kg/m3 | mass density (362.52 K, 2045 kPa): 987.3 ± 0.6 kg/m3 | mass density (362.52 K, 2982 kPa): 987.8 ± 0.6 kg/m3 | mass density (362.52 K, 4026 kPa): 988.4 ± 0.6 kg/m3 | mass density (362.52 K, 5007 kPa): 988.9 ± 0.6 kg/m3 | mass density (362.52 K, 6014 kPa): 989.5 ± 0.6 kg/m3 | mass density (362.52 K, 7015 kPa): 990.2 ± 0.6 kg/m3 | mass density (362.52 K, 7998 kPa): 990.8 ± 0.6 kg/m3 | mass density (362.52 K, 9003 kPa): 991.3 ± 0.6 kg/m3 | mass density (362.52 K, 9986 kPa): 991.9 ± 0.6 kg/m3 | mass density (362.52 K, 10996 kPa): 992.5 ± 0.6 kg/m3 | mass density (362.52 K, 12008 kPa): 993.1 ± 0.6 kg/m3 | mass density (362.52 K, 13004 kPa): 993.7 ± 0.6 kg/m3 | mass density (362.52 K, 13985 kPa): 994.2 ± 0.6 kg/m3 | mass density (362.52 K, 15010 kPa): 994.8 ± 0.6 kg/m3 | mass density (362.52 K, 15983 kPa): 995.4 ± 0.6 kg/m3 | mass density (362.52 K, 17007 kPa): 995.7 ± 0.6 kg/m3 | mass density (362.52 K, 17985 kPa): 996.3 ± 0.6 kg/m3 | mass density (362.52 K, 18994 kPa): 996.9 ± 0.5 kg/m3 | mass density (362.52 K, 19994 kPa): 997.4 ± 0.5 kg/m3
